Key:
Botrytis cinerea = assay: Test Example B: Gray mold on tomato; conditions: 250 ppm drug solution sprayed on test plant
Plasmopara viticola = assay: Test Example G: Downy mildew on vine; conditions: 250 ppm drug solution sprayed (2.5 ml/pot), grape Neomuscat, 7 to 10 days after inoculation
[1] = system: Blumeria graminis f. sp. hordei; assay: Test Example D: Powdery mildew on barley; conditions: 250 ppm drug solution sprayed on test plant
Puccinia recondita = assay: Test Example E: Brown rust on wheat; type: in vivo; conditions: 250 ppm drug solution sprayed on test plant
[2] = system: Colletotrichum orbiculare; assay: Test Example H: Anthracnose on cucumber; conditions: 250 ppm drug solution sprayed (2.5 ml/pot), cucumber Sagami Hanjiro, 6 to 10 days after inoculation
Magnaporthe grisea = assay: whole plant or invertebrate; type: in vivo; conditions: 250 ppm drug solution sprayed on test plant
Alternaia brassicicola = assay: Test Example C: Alternaria sooty spot on cabbage; type: in vivo; conditions: 250 ppm drug solution sprayed on test plant
From the text: Seeds of a test plant (cabbage variety: Shikidori) were planted and cultivated until the cotyledons extended.
<Control Value> Control value=100{1−(n/3)}

Phytophthora infestans = assay: whole plant or invertebrate; type: in vivo; conditions: 250 ppm drug solution sprayed on test plant

SMILES: CCCC1=C(c2c(F)cccc2F)N(CC)C(=O)CC1 [compound 422]
- Test B control value (Botrytis cinerea): L (50% or less control value)
- Test G control value (Plasmopara viticola): L (50% or less control value)
- Test D control value [1]: H (more than 50% control value)
- Test E control value (Puccinia recondita): L (50% or less control value)
- Test H control value [2]: L (50% or less control value)
- Test A control value (Magnaporthe grisea): L (50% or less control value)
- Test C control value (Alternaia brassicicola): H (more than 50% control value)
- Test F control value (Phytophthora infestans): L (50% or less control value)

SMILES: CC(C)C(C)(O)c1cc(Br)c(=O)n(C)c1-c1c(F)cc(F)cc1F (stereo not drawn) [compound 423]
- Test B control value (Botrytis cinerea): H (more than 50% control value)
- Test G control value (Plasmopara viticola): H (more than 50% control value)
- Test D control value [1]: H (more than 50% control value)
- Test E control value (Puccinia recondita): H (more than 50% control value)
- Test H control value [2]: H (more than 50% control value)
- Test A control value (Magnaporthe grisea): H (more than 50% control value)
- Test C control value (Alternaia brassicicola): H (more than 50% control value)
- Test F control value (Phytophthora infestans): H (more than 50% control value)

SMILES: CCCC1=C(c2c(F)cc(F)cc2F)N(CC)C(=S)CC1 [compound 424]
- Test B control value (Botrytis cinerea): H (more than 50% control value)
- Test G control value (Plasmopara viticola): L (50% or less control value)
- Test D control value [1]: L (50% or less control value)
- Test E control value (Puccinia recondita): L (50% or less control value)
- Test H control value [2]: L (50% or less control value)
- Test A control value (Magnaporthe grisea): L (50% or less control value)
- Test C control value (Alternaia brassicicola): L (50% or less control value)
- Test F control value (Phytophthora infestans): L (50% or less control value)

SMILES: CCCc1ccc(=O)n(CC)c1-c1c(F)cccc1F [compound 426]
- Test B control value (Botrytis cinerea): H (more than 50% control value)
- Test G control value (Plasmopara viticola): L (50% or less control value)
- Test D control value [1]: L (50% or less control value)
- Test E control value (Puccinia recondita): L (50% or less control value)
- Test H control value [2]: H (more than 50% control value)
- Test A control value (Magnaporthe grisea): H (more than 50% control value)
- Test C control value (Alternaia brassicicola): H (more than 50% control value)
- Test F control value (Phytophthora infestans): L (50% or less control value)

SMILES: CCCc1ccc(=S)n(CC)c1-c1c(F)cc(F)cc1F [compound 427]
- Test B control value (Botrytis cinerea): H (more than 50% control value)
- Test G control value (Plasmopara viticola): L (50% or less control value)
- Test D control value [1]: L (50% or less control value)
- Test E control value (Puccinia recondita): L (50% or less control value)
- Test H control value [2]: H (more than 50% control value)
- Test A control value (Magnaporthe grisea): L (50% or less control value)
- Test C control value (Alternaia brassicicola): H (more than 50% control value)
- Test F control value (Phytophthora infestans): L (50% or less control value)

SMILES: CCCc1cc(Cl)c(=O)n(CC)c1-c1c(F)cccc1F [compound 428]
- Test B control value (Botrytis cinerea): H (more than 50% control value)
- Test G control value (Plasmopara viticola): H (more than 50% control value)
- Test D control value [1]: H (more than 50% control value)
- Test E control value (Puccinia recondita): H (more than 50% control value)
- Test H control value [2]: H (more than 50% control value)
- Test A control value (Magnaporthe grisea): H (more than 50% control value)
- Test C control value (Alternaia brassicicola): H (more than 50% control value)
- Test F control value (Phytophthora infestans): L (50% or less control value)

SMILES: CCCc1cc(Br)c(=O)n(CC)c1-c1c(F)cccc1F [compound 429]
- Test B control value (Botrytis cinerea): H (more than 50% control value)
- Test G control value (Plasmopara viticola): H (more than 50% control value)
- Test D control value [1]: H (more than 50% control value)
- Test E control value (Puccinia recondita): H (more than 50% control value)
- Test H control value [2]: H (more than 50% control value)
- Test A control value (Magnaporthe grisea): H (more than 50% control value)
- Test C control value (Alternaia brassicicola): H (more than 50% control value)
- Test F control value (Phytophthora infestans): L (50% or less control value)

SMILES: CCCc1cc(Cl)c(=S)n(CC)c1-c1c(F)cc(F)cc1F [compound 430]
- Test B control value (Botrytis cinerea): H (more than 50% control value)
- Test G control value (Plasmopara viticola): L (50% or less control value)
- Test D control value [1]: H (more than 50% control value)
- Test E control value (Puccinia recondita): H (more than 50% control value)
- Test H control value [2]: H (more than 50% control value)
- Test A control value (Magnaporthe grisea): H (more than 50% control value)
- Test C control value (Alternaia brassicicola): H (more than 50% control value)
- Test F control value (Phytophthora infestans): L (50% or less control value)

SMILES: CCCc1cc(Br)c(=O)n(C)c1-c1ccc(OC)cc1C [compound 431]
- Test B control value (Botrytis cinerea): H (more than 50% control value)
- Test G control value (Plasmopara viticola): H (more than 50% control value)
- Test D control value [1]: H (more than 50% control value)
- Test E control value (Puccinia recondita): H (more than 50% control value)
- Test H control value [2]: H (more than 50% control value)
- Test A control value (Magnaporthe grisea): H (more than 50% control value)
- Test C control value (Alternaia brassicicola): H (more than 50% control value)
- Test F control value (Phytophthora infestans): L (50% or less control value)

SMILES: COC(C)(c1cc(Br)c(=O)n(C)c1-c1c(F)cc(F)cc1F)C(C)C (stereo not drawn) [compound 432]
- Test B control value (Botrytis cinerea): H (more than 50% control value)
- Test G control value (Plasmopara viticola): L (50% or less control value)
- Test D control value [1]: H (more than 50% control value)
- Test E control value (Puccinia recondita): H (more than 50% control value)
- Test H control value [2]: H (more than 50% control value)
- Test A control value (Magnaporthe grisea): H (more than 50% control value)
- Test C control value (Alternaia brassicicola): H (more than 50% control value)
- Test F control value (Phytophthora infestans): L (50% or less control value)

SMILES: CCCc1cc(Cl)c(=O)n(C)c1-c1ccc(OC)cc1C [compound 433]
- Test B control value (Botrytis cinerea): H (more than 50% control value)
- Test G control value (Plasmopara viticola): H (more than 50% control value)
- Test D control value [1]: H (more than 50% control value)
- Test E control value (Puccinia recondita): H (more than 50% control value)
- Test H control value [2]: H (more than 50% control value)
- Test A control value (Magnaporthe grisea): L (50% or less control value)
- Test C control value (Alternaia brassicicola): H (more than 50% control value)
- Test F control value (Phytophthora infestans): L (50% or less control value)

SMILES: CCCc1cc(I)c(=O)n(CC)c1-c1c(F)cc(F)cc1F [compound 434]
- Test B control value (Botrytis cinerea): H (more than 50% control value)
- Test G control value (Plasmopara viticola): L (50% or less control value)
- Test D control value [1]: H (more than 50% control value)
- Test E control value (Puccinia recondita): H (more than 50% control value)
- Test H control value [2]: H (more than 50% control value)
- Test A control value (Magnaporthe grisea): H (more than 50% control value)
- Test C control value (Alternaia brassicicola): H (more than 50% control value)
- Test F control value (Phytophthora infestans): L (50% or less control value)

SMILES: CCCC1=C(c2c(F)cc(F)cc2F)N(CCC)C(=O)CC1 [compound 435]
- Test B control value (Botrytis cinerea): L (50% or less control value)
- Test G control value (Plasmopara viticola): L (50% or less control value)
- Test D control value [1]: L (50% or less control value)
- Test E control value (Puccinia recondita): L (50% or less control value)
- Test H control value [2]: L (50% or less control value)
- Test A control value (Magnaporthe grisea): L (50% or less control value)
- Test C control value (Alternaia brassicicola): H (more than 50% control value)
- Test F control value (Phytophthora infestans): H (more than 50% control value)

SMILES: CCCc1cc(I)c(=O)n(CC)c1-c1c(F)cc(OC)cc1F [compound 436]
- Test B control value (Botrytis cinerea): H (more than 50% control value)
- Test G control value (Plasmopara viticola): L (50% or less control value)
- Test D control value [1]: H (more than 50% control value)
- Test E control value (Puccinia recondita): H (more than 50% control value)
- Test H control value [2]: H (more than 50% control value)
- Test A control value (Magnaporthe grisea): H (more than 50% control value)
- Test C control value (Alternaia brassicicola): H (more than 50% control value)
- Test F control value (Phytophthora infestans): L (50% or less control value)

SMILES: CCCc1ccc(=O)n(CCC)c1-c1c(F)cc(F)cc1F [compound 437]
- Test B control value (Botrytis cinerea): L (50% or less control value)
- Test G control value (Plasmopara viticola): L (50% or less control value)
- Test D control value [1]: H (more than 50% control value)
- Test E control value (Puccinia recondita): L (50% or less control value)
- Test H control value [2]: H (more than 50% control value)
- Test A control value (Magnaporthe grisea): L (50% or less control value)
- Test C control value (Alternaia brassicicola): L (50% or less control value)
- Test F control value (Phytophthora infestans): L (50% or less control value)

SMILES: CCCc1ccc(=O)n(CC)c1-c1c(F)cc(O)cc1F [compound 438]
- Test B control value (Botrytis cinerea): H (more than 50% control value)
- Test G control value (Plasmopara viticola): L (50% or less control value)
- Test D control value [1]: L (50% or less control value)
- Test E control value (Puccinia recondita): H (more than 50% control value)
- Test H control value [2]: L (50% or less control value)
- Test A control value (Magnaporthe grisea): L (50% or less control value)
- Test C control value (Alternaia brassicicola): H (more than 50% control value)
- Test F control value (Phytophthora infestans): L (50% or less control value)

SMILES: CCCc1cc(Cl)c(=O)n(CCC)c1-c1c(F)cc(F)cc1F [compound 439]
- Test B control value (Botrytis cinerea): L (50% or less control value)
- Test G control value (Plasmopara viticola): L (50% or less control value)
- Test D control value [1]: L (50% or less control value)
- Test E control value (Puccinia recondita): L (50% or less control value)
- Test H control value [2]: H (more than 50% control value)
- Test A control value (Magnaporthe grisea): H (more than 50% control value)
- Test C control value (Alternaia brassicicola): L (50% or less control value)
- Test F control value (Phytophthora infestans): L (50% or less control value)

SMILES: CCCc1cc(Br)c(=O)n(CCC)c1-c1c(F)cc(F)cc1F [compound 440]
- Test B control value (Botrytis cinerea): L (50% or less control value)
- Test G control value (Plasmopara viticola): L (50% or less control value)
- Test D control value [1]: L (50% or less control value)
- Test E control value (Puccinia recondita): L (50% or less control value)
- Test H control value [2]: L (50% or less control value)
- Test A control value (Magnaporthe grisea): H (more than 50% control value)
- Test C control value (Alternaia brassicicola): L (50% or less control value)
- Test F control value (Phytophthora infestans): L (50% or less control value)
